Laboratory results from US11918582B2 (RAPT Therapeutics, Inc., priority 2021, dated 2024).
Where a name gives a salt, the structure may show the parent alone.

target: T1, human HPK1 (MAP4K1) (Homo sapiens, UniProt Q92918); assay: Biochemical assay for activity against HPK1 (ADP-Glo, MBP substrate); conditions: recombinant human HPK1 kinase domain, 1 nM enzyme, ADP-Glo luminescence
T1 construct: Recombinant human HPK1 kinase domain was obtained from ThermoFisher (Cat. #PV6357) and SignalChem (Cat. #M23-11G); purchased ThermoFisher; SignalChem PV6357; M23-11G
T1 sequence (Q92918 17-274 limits assumed): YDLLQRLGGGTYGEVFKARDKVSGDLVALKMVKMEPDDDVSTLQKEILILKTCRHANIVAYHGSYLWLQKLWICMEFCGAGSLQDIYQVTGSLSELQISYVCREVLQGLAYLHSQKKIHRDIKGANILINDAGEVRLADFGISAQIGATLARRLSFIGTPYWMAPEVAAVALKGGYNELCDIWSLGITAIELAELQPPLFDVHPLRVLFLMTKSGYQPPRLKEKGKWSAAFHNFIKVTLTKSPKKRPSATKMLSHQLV
In short: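 Recombinant human HPK1 kinase domain (1 nM solution) preincubated 15 min at room temperature with compounds in pH 7.5 HEPES buffer with NaCl, TCEP, MgCl2, Tween-20, BSA. MBP substrate with ATP added, reaction run 2 h at room temperature. ADP formation read by ADP-Glo luminescence to give IC50.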

| Compound | IC50 |
| --- | --- |
| CCOC(=O)CCCn1ncc2cnc(Nc3ccc4c(c3)CN(C)CC4)nc21 [Example 8, Ethyl 4-(6-((2-methyl-1,2,3,4-tetrahydroisoquinolin-7-yl)amino)-1H-pyrazolo[3,4-d]pyrimidin-1-yl)butanoate] | < 100 nM |
| COc1cc2c(cc1Nc1ncc3c(C(F)(F)F)nn(C(C)C)c3n1)CN(C)CC2 [Example 7, N-(1-isopropyl-3-(trifluoromethyl)-1H-pyrazolo[3,4-d]pyrimidin-6-yl)-6-methoxy-2-methyl-1,2,3,4-tetrahydroisoquinolin-7-amine] | < 100 nM |
| COc1cc2c(cc1Nc1ncc3c(C)nn([C@H]4CC[C@H](O)CC4)c3n1)CN(C)CC2 [Example 50, trans-4-(6-((6-methoxy-2-methyl-1,2,3,4-tetrahydroisoquinolin-7-yl)amino)-3-methyl-1H-pyrazolo[3,4-d]pyrimidin-1-yl)cyclohexan-1-ol] | < 100 nM |
| COc1cc2c(cc1Nc1ncc3cnn(C[C@@H]4CCC[C@H]4C(=O)O)c3n1)CN(C)CC2 (racemic) [Example 182, racemic trans-2-((6-((6-methoxy-2-methyl-1,2,3,4-tetrahydroisoquinolin-7-yl)amino)-1H-pyrazolo[3,4-d]pyrimidin-1-yl)methyl)cyclopentane-1-carboxylic Acid] | < 100 nM |
| COc1cc2c(cc1Nc1ncc3cnn([C@H]4C[C@@H](CNC(C)=O)C4)c3n1)CN(C)CC2 [Example 126, N-((cis-3-(6-((6-methoxy-2-methyl-1,2,3,4-tetrahydroisoquinolin-7-yl)amino)-1H-pyrazolo[3,4-d]pyrimidin-1-yl)cyclobutyl)methyl)acetamide] | 100 to 250 nM |
| COc1cc2c(cc1Nc1ncc3cnn(C[C@@H]4CC[C@@H](C)N4C(C)=O)c3n1)CN(C)CC2 [Example 174] | < 100 nM |
| COc1cc2c(cc1Nc1ncc3cnn(C4CCC(CO)CC4)c3n1)CN(C)CC2 (stereo in doubt) [Example 64, cis-[4-[6-[(6-methoxy-2-methyl-3,4-dihydro-1H-isoquinolin-7-yl)amino]pyrazolo[3,4-d]pyrimidin-1-yl]cyclohexyl]methanol] | < 100 nM |
| COc1cc2c(cc1Nc1ncc3cnn(C[C@@H]4CCCN4C(C)=O)c3n1)CN(C)CC2 [Example 110, (S)-1-(2-((6-((6-methoxy-2-methyl-1,2,3,4-tetrahydroisoquinolin-7-yl)amino)-1H-pyrazolo[3,4-d]pyrimidin-1-yl)methyl)pyrrolidin-1-yl)ethan-1-one] | < 100 nM |
| COC(=O)N[C@H](C)Cn1ncc2cnc(Nc3cc4c(cc3OC)CCN(C)C4)nc21 [Example 98, methyl N-[(1R)-2-[6-[(6-methoxy-2-methyl-3,4-dihydro-1H-isoquinolin-7-yl)amino]pyrazolo[3,4-d]pyrimidin-1-yl]-1-methyl-ethyl]carbamate] | 100 to 250 nM |
| COc1cc2c(cc1Nc1ncc3cnn(C[C@@H]4CCCCN4C(C)=O)c3n1)CN(C)CC2 [Example 134, (S)-1-(2-((6-((6-methoxy-2-methyl-1,2,3,4-tetrahydroisoquinolin-7-yl)amino)-1H-pyrazolo[3,4-d]pyrimidin-1-yl)methyl)piperidin-1-yl)ethan-1-one] | < 100 nM |
| COc1cc2c(cc1Nc1ncc3cnn(C[C@@H]4[C@@H](C)CCN4C(C)=O)c3n1)CN(C)CC2 (racemic) [Example 214, 1-[2-[[6-[(6-methoxy-2-methyl-3,4-dihydro-1H-isoquinolin-7-yl)amino]pyrazolo[3,4-d]pyrimidin-1-yl]methyl]-3-methyl-pyrrolidin-1-yl]ethenone] | < 100 nM |
| COc1cc2c(cc1Nc1ncc3cnn(C[C@H]4CCCN4C(C)=O)c3n1)CN(C)CC2 [Example 117, (R)-1-(2-((6-((6-methoxy-2-methyl-1,2,3,4-tetrahydroisoquinolin-7-yl)amino)-1H-pyrazolo[3,4-d]pyrimidin-1-yl)methyl)pyrrolidin-1-yl)ethan-1-one trifluoroacetate] | < 100 nM |
| COc1cc2c(cc1Nc1ncc3cnn(C(C)C(C)(C)C#N)c3n1)CN(C)CC2 (stereo not drawn) [Example 151, 3-(6-((6-methoxy-2-methyl-1,2,3,4-tetrahydroisoquinolin-7-yl)amino)-1H-pyrazolo[3,4-d]pyrimidin-1-yl)-2,2-dimethylbutanenitrile hydrochloride] | < 100 nM |
| COc1cc2c(cc1Nc1ncc3cnn([C@H]4CC[C@H](OC)CC4)c3n1)CN(C)CC2 [Example 47, 6-methoxy-N-(1-(trans-4-methoxycyclohexyl)-1H-pyrazolo[3,4-d]pyrimidin-6-yl)-2-methyl-1,2,3,4-tetrahydroisoquinolin-7-amine] | < 100 nM |
| COc1cc2c(cc1Nc1ncc3cnn(C[C@@H]4CCC[C@@H]4C(=O)O)c3n1)CN(C)CC2 (racemic) [Example 162, Rac-cis-2-[[6-[(6-methoxy-2-methyl-3,4-dihydro-1H-isoquinolin-7-yl)amino]pyrazolo[3,4-d]pyrimidin-1-yl]methyl]cyclopentanecarboxylic Acid] | < 100 nM |
| COc1cc2c(cc1Nc1ncc3cnn([C@H]4C[C@@H](CO)C4)c3n1)CN(C)CC2 [Example 66, cis-[3-[6-[(6-methoxy-2-methyl-3,4-dihydro-1H-isoquinolin-7-yl)amino]pyrazolo[3,4-d]pyrimidin-1-yl]cyclobutyl]methanol] | < 100 nM |
| COc1cc2c(cc1Nc1ncc3cnn(C[C@@H]4C[C@@H]4F)c3n1)CN(C)CC2 (racemic) [Example 207, N-(1-(((cis)-2-fluorocyclopropyl)methyl)-1H-pyrazolo[3,4-d]pyrimidin-6-yl)-6-methoxy-2-methyl-1,2,3,4-tetrahydroisoquinolin-7-amine] | < 100 nM |
| C=CCCN1CCc2ccc(Nc3ncc4cnn(CCC=C)c4n3)cc2C1 [Example 18, 2-(but-3-en-1-yl)-N-(1-(but-3-en-1-yl)-1H-pyrazolo[3,4-d]pyrimidin-6-yl)-1,2,3,4-tetrahydroisoquinolin-7-amine] | < 100 nM |

Now from value to compound:

| IC50 | Compound |
| --- | --- |
| 100 to 250 nM | COc1cc2c(cc1Nc1ncc3c(C)nn(C[C@@H]4CCCN4C(C)=O)c3n1)CN(C)CC2 [Example 115, (S)-1-(2-((6-((6-methoxy-2-methyl-1,2,3,4-tetrahydroisoquinolin-7-yl)amino)-3-methyl-1H-pyrazolo[3,4-d]pyrimidin-1-yl)methyl)231yrrolidine-1-yl)ethan-1-one] |
| < 100 nM | CNC(=O)[C@H]1CC[C@H](n2ncc3cnc(Nc4cc5c(cc4OC)CCN(C)C5)nc32)CC1 [Example 60, (1r,4r)-4-(6-((6-methoxy-2-methyl-1,2,3,4-tetrahydroisoquinolin-7-yl)amino)-1H-pyrazolo[3,4-d]pyrimidin-1-yl)-N-methylcyclohexane-1-carboxamide] |
| < 100 nM | COc1cc2c(cc1Nc1ncc3cnn([C@H]4CC[C@H](CO)CC4)c3n1)CN(CCO)CC2 [Example 167, 2-[7-[[1-[4-(hydroxymethyl)cyclohexyl]pyrazolo[3,4-d]pyrimidin-6-yl]amino]-6-methoxy-3,4-dihydro-1H-isoquinolin-2-yl]ethanol] |
| < 100 nM | COc1cc2c(cc1Nc1ncc3cnn([C@H]4CC[C@H](C(=O)N(C)C)CC4)c3n1)CN(C)CC2 [Example 55, (1r,4r)-4-(6-((6-methoxy-2-methyl-1,2,3,4-tetrahydroisoquinolin-7-yl)amino)-1H-pyrazolo[3,4-d]pyrimidin-1-yl)-N,N-dimethylcyclohexane-1-carboxamide] |
| < 100 nM | COc1cc2c(cc1Nc1ncc3cnn(C[C@H]4CCCN4S(C)(=O)=O)c3n1)CN(C)CC2 [Example 118, (R)-6-methoxy-2-methyl-N-(1-((1-(methylsulfonyl)pyrrolidin-2-yl)methyl)-1H-pyrazolo[3,4-d]pyrimidin-6-yl)-1,2,3,4-tetrahydroisoquinolin-7-amine trifluoroacetate] |
| < 100 nM | COc1cc2c(cc1Nc1ncc3cnn([C@H]4CC[C@H](CO)CC4)c3n1)CN(CCF)CC2 [Example 169, [4-[6-[[2-(2-fluoroethyl)-6-methoxy-3,4-dihydro-1H-isoquinolin-7-yl]amino]pyrazolo[3,4-d]pyrimidin-1-yl]cyclohexyl]methanol] |
| < 100 nM | COc1cc2c(cc1Nc1ncc3cnn(C[C@@H]4[C@@H](C)[C@@H](O)CN4C(C)=O)c3n1)CN(C)CC2 [Example 163, 1-[(2S,3R,4S)-4-hydroxy-2-[[6-[(6-methoxy-2-methyl-3,4-dihydro-1H-isoquinolin-7-yl)amino]pyrazolo[3,4-d]pyrimidin-1-yl]methyl]-3-methyl-pyrrolidin-1-yl]ethenone] |
| < 100 nM | Cc1nn(C2COC2)c2nc(Nc3ccc4c(c3)CN(C)CC4)ncc12 [Example 2, 2-methyl-N-[3-methyl-1-(oxetan-3-yl)pyrazolo[3,4-d]pyrimidin-6-yl]-3,4-dihydro-1H-isoquinolin-7-amine] |
| < 100 nM | COc1cc2c(cc1Nc1ncc3cnn(C4C=CCCC4)c3n1)CN(C)CC2 (stereo not drawn) [Example 34, N-(1-(cyclohex-2-en-1-yl)-1H-pyrazolo[3,4-d]pyrimidin-6-yl)-6-methoxy-2-methyl-1,2,3,4-tetrahydroisoquinolin-7-amine] |
